# Source: patent publication US20040097598A1 (priority 2001, published 2004)
# Like-named read-outs stand apart in the source and are kept apart here.
# Legend:
# [1] = tested on: MES seizure; test: maximal electroshock (MES) seizure test; assay type: in vivo, mice; details: for TI (therapeutic index): ratio TD50 (rotorod)/ED50 (MES); for TI (therapeutic index) / anticonvulsant activity: mice; for anticonvulsant activity / LogED50: MES test; for anticonvulsant activity: intraperitoneal; for LogED50: best-fit value, C5 vs C7 comparison
# Protocol: (§1) Male CF-1 mice, weighing 28-30 g, were used as subjects (Charles River Canada, La Prairie, Quebec, Canada). Three to five subjects per drug dose were used to prescreen each compound for anticonvulsant activity. Prescreening involved injecting subjects with the drug at doses of 3, 6 mmol/kg and assessing activity and toxicity 30 min later. Promising compounds progressed to dose-response studies, which employed at least 50 subjects, 10 subjects per dose.
# (§2) Compounds were dissolved in oil and injected intraperitoneally.
# Thirty minutes after drug injection, the MES seizure test was administered. We used the procedure of Krall et al. (1978). In brief, a seizure was induced using the electrical current applied via corneal electrodes. The current was set to 50 mA with a 60 Hz sine wave pulse configuration and train duration of 0.2 sec. Seizure protection was defined in this model as a failure to extend the hind limbs to an angle greater than 90 degrees during the tonic period of the convulsion.
# Data analysis was performed using GraphPad Prizm software package version 3.02 for Windows (GraphPad Software Inc, San Diego, Calif., USA). Both dose-response and toxicity data were fitted using non-linear sigmoidal dose-response model with variable slope: Y=Bottom+(Top-Bottom)/(1+10^((LogED50—X)*HillSlope)), where Bottom, Top, HillSlope and ED50 were the fitting parameters, X was the logarithm of drug concentration, and Y was the response parameter. ED50 and TD50, which are the concentrations that give a response in 50% subjects in seizure and toxicity tests, were determined as best-fit values. Therapeutic index (TI) was calculated as a ratio of TD50/ED50.
# [2] = tested on: neurological deficit (rotorod); test: rotorod toxicity test; assay type: in vivo; details: dose giving rotorod failure in 50% subjects, about 25 min after intraperitoneal injection in oil, male CF-1 mice
# Protocol: as §1, §2
# The test was administered about 25 minutes after the injection. In brief, the diameter of a rotating rod was about 5 cm and the number of revolutions per minute was set at 6 rpm. Mice were placed on the rod so that it was rotated toward the animal. Animals that were not able to maintain their equilibrium on the rod for 1 min were again put on the rod a further two times.
# Both dose-response and toxicity data were fitted using non-linear sigmoidal dose-response model with variable slope: Y=Bottom+(Top-Bottom)/(1+10^((LogED50—X)*HillSlope)), where Bottom, Top, HillSlope and ED50 were the fitting parameters, X was the logarithm of drug concentration, and Y was the response parameter. […] Therapeutic index (TI) was calculated as a ratio of TD50/ED50.
# [3] = target: nicotinic acetylcholine receptors; details: inhibition of acetylcholine ion channel, Alifimoff et al. (1993); cited from earlier work
# [4] = tested on: pentylenetetrazole seizures; test: pentylenetetrazole seizures after intraperitoneal acetoacetate; assay type: in vivo; details: 15-30 min after intraperitoneal injection, mice or rats
# From the text: (§3) Experiments of Keith and Helmholz involving the thujone model of epileptic seizures seemed to support Wilder's hypothesis (Helmholz & Keith 1930, Keith 1931, 1932a,b). […] The Keith's results and conclusions about anticonvulsant activity of acetoacetate are debatable. […] At the same time, acetoacetate easily decomposes to form acetone.
# [5] = tested on: maximal electroshock seizures; test: maximal electroshock seizures after intraperitoneal acetoacetate; assay type: in vivo; details: 15-30 min after intraperitoneal injection, mice or rats
# From the text: as §3
# [6] = tested on: thujone model of epileptic seizures; details: cited from earlier work
# [7] = tested on: convulsions induced by electroshock; details: pretreatment, rats; cited from earlier work
# [8] = tested on: amygdala-kindled seizures; test: amygdala-kindling model, acetone (FIG. 3)
# From the text: (§4) The amygdala-kindled focus is a model of complex partial seizures in humans (Albright & Burnham 1980). These are notoriously drug resistant.
# (§5) The AY-9944-induced seizures were quantified by measurement of the onset-to-offset durations of the slow spike-and-wave discharge (SWD) combined over the 20-min intervals. In the AY-9944 model, average ‘% SWD decrease’ was the response parameter.
# (§6) Compounds may be examined for their efficacy as anticonvulsants using a number of different animal models, including the maximal electroshock (MES) model (human analog: tonic-clonic seizures) as described in Krall et al. (1978) and in Example 1 herein, the threshold pentylenetetrazole (PTZ) model (human analog: absence seizures) as described in Krall et al. (1978), the amygdala-kindling model (human analog: complex partial seizures with secondary generalization) as described in Albright & Burnham (1980), and the AY-9944 model (human analog, a typical absence, a component of the Lennox-Gastaut syndrome) as described in Cortez et al. (2001). The compounds may also be tested for their toxicity using standard assays, such as the standard rotorod assay as described in Dunham & Miya (1957) and Wlaz & Loscher (1998) and in Example 1 herein.
# [9] = tested on: threshold pentylenetetrazole (PTZ) model; test: threshold pentylenetetrazole (PTZ) model, acetone (FIG. 3); assay type: in vivo
# From the text: as §4, §5, §6
# [10] = tested on: electrically evoked seizure; details: exposed for 4 h to air containing acetone vapors; cited from earlier work
# [11] = tested on: AY-9944-induced seizures; test: AY-9944 model, acetone (FIG. 3); assay type: in vivo
# From the text: as §4, §5, §6
# [12] = tested on: convulsions induced by isonicotinic acid; details: pretreatment, rats; cited from earlier work
# [13] = tested on: semicarbizide-induced convulsions; details: given orally to mice; cited from earlier work
# [14] = tested on: seizures; test: anticonvulsant action of the ketone bodies; details: in vivo
# From the text: The present inventors have studied the mechanism of action of the ketogenic diet in a series of animal experiments.
# [15] = tested on: maximal electroshock (MES) model; test: maximal electroshock (MES) model, acetone (FIG. 3); assay type: in vivo
# From the text: as §4, §5, §6
# [16] = dose giving seizure protection in 50% subjects, MES test 30 min after intraperitoneal injection in oil, male CF-1 mice
# [17] = Mus musculus, ip, 0.5 h, dose giving seizure protection in 50% subjects, MES test 30 min after intraperitoneal injection in oil, male CF-1 mice, read-out: ED50
# [18] = mouse, in vivo, ip, read-out: TD50
# [19] = given chronically for 28 days, rats
Molecule,TI (therapeutic index) [1],"ED50 [1, 17] [µmol/kg]","TD50 [2, 18] [µmol/kg]",further results
2-Butanone,1.7,–,–,"ED50 [1, 16]: 5800 µmol/kg; TD50 [2]: 10000 µmol/kg"
"CC(O)CCCO (centres unmarked) [1,4-Pentanediol]",–,–,–,anticonvulsant activity [1]: absence of anticonvulsant activity
CCCCCCCCC(C)O (centres unmarked) [2-Decanol],Not Active,–,–,"ED50 [1, 16]: Not Active; TD50 [2]: Not Active"
CCCCCCCCC(C)=O [2-Decanone],Not Active,–,–,"ED50 [1, 16]: Not Active; TD50 [2]: Not Actuve"
CCCCCC(C)O (centres unmarked) [2-Heptanol],3.9,1300,5100,LogED50 [1]: LogED50 = 0.1197
CCCCCC(C)=O [2-Heptanone],2.2,2800,6000,LogED50 [1]: LogED50 = 0.4447
CCCCC(C)=O [2-Hexanone],1.8,–,4400,"ED50 ([1]; Mus musculus, ip, 0.5 h): 2400 µmol/kg"
CCCCCCCC(C)O (centres unmarked) [2-Nonanol],4.3,1200,5000,–
CCCCCCCC(C)=O [2-Nonanone],9.4,1700,15900,–
CCCCCCC(C)O (centres unmarked) [2-Octanol],1.9,2000,3900,–
CCCCCCC(C)=O [2-Octanone],1.8,3400,6000,–
CCCC(C)O (centres unmarked) [2-Pentanol],3.7,1600,5700,LogED50 [1]: LogED50 = 0.2331
CCCC(C)=O [2-Pentanone],2.2,–,7200,"LogED50 [1]: LogED50 = 0.5176; ED50 ([1]; Mus musculus, ip, 0.5 h): 3300 µmol/kg"
CCCCCCCCCC(C)=O [2-Undecanone],Not Active,–,–,"ED50 [1, 16]: Not Active; TD50 [2]: Not Active"
CCC(C)O (centres unmarked) [2-butanol],–,–,–,IC50 [3]: 60 to 70 mM
CCCCCCC(=O)CC [3-Nonanone],2.2,9600,20900,–
CCC(=O)CC [3-Pentanone],2.3,3300,7600,LogED50 [1]: LogED50 = 0.5124

Molecule,TI (therapeutic index) [1],"ED50 [1, 17] [µmol/kg]","TD50 [2, 18] [µmol/kg]",further results
CCCC(=O)CCC [4-Heptanone],2.4,2000,4700,LogED50 [1]: LogED50 = 0.2981
CCCCCC(=O)CCC [4-Nonanone],3.3,5000,16300,–
CCCCC(=O)CCCC [5-Nonanone],3.6,3600,13200,–
CCCCCC(=O)CCCCC [6-Undecanone],Not Active,–,–,"ED50 [1, 16]: Not Active; TD50 [2]: Not Active"
CC(=O)CC(=O)O [Acetoacetate],–,–,–,effect against pentylenetetrazole seizures [4]: not effective; effect against maximal electroshock seizures [5]: not effective
"CC(O)CC(=O)O (stereo not drawn) [Beta-hydroxybutyrate, beta-hydroxybutyrate]",–,–,–,anticonvulsant effect [6]: not anticonvulsant
CCCCOC(C)=O [Butyl acetate],–,–,–,anticonvulsant activity [1]: Series V - Inactive analogues
CC(=O)CC(C)(C)O [Diacetone],–,–,–,anticonvulsant activity ([1]; listed as diacetone alcohol): absence of anticonvulsant activity
CCOC(=O)CC(C)=O [Ethyl acetoacetate],–,–,–,anticonvulsant activity [1]: absence of anticonvulsant activity
CCCCCC=O [Hexanal],–,–,–,anticonvulsant activity [1]: inactive as anticonvulsants
COCC(C)=O [Methoxyacetone],–,–,–,anticonvulsant activity [1]: absence of anticonvulsant activity
CCCCCCCCC=O [Nonanal],–,–,–,anticonvulsant activity [1]: inactive as anticonvulsants
CCCCCCCCC [Nonane],–,–,–,anticonvulsant activity [1]: inactive as anticonvulsant
CC(=O)CC(=O)O [acetoacetic acid],–,–,–,anticonvulsant effect [6]: most marked anticonvulsant effects
CC(=O)CC(=O)[O-].[Na+] [sodium acetoacetate],–,–,–,anticonvulsant effect [6]: most marked anticonvulsant effects
CCCC(CCC)C(=O)O [valproate],2.7,1400,3800,–
Acetone,–,–,–,"ED50 [1, 16]: 16200 µmol/kg; ED50 ([1]; dose giving seizure protection in 50% subjects, MES test 30 min after intraperitoneal injection in oil, male CF-1 mice, listed as acetone): 16000 µmol/kg; TD50 [2]: 35200 µmol/kg; protection against clonic-tonic convulsions [7]: protected; seizure suppression ([8]; amygdala-kindling model): suppresses seizures; development of kindled seizures [8, 19]: significantly delayed; tolerability [8, 19]: well tolerated; effect against the kindled amygdala focus ([8]; sub-toxic doses): effective; seizure suppression [9]: suppresses seizures; rats in which electrically evoked seizure is inhibited [10]: 50%; seizure suppression [11]: suppresses seizures; protection against clonic-tonic convulsions [12]: protected; semicarbizide-induced convulsions and mortality [13]: reduce; anticonvulsant [14]: anticonvulsant; seizure suppression [15]: suppresses seizures"
